Assay results from patent publication US20050107405A1, “Pharmaceutical composition for alleviating pain or spasticity in a patient suffering from spinal cord injury” (priority 2003, published 2005).
“Also recorded” adds a separate entry of the source.

Key:
[1] = tested on: pain or spasticity in patients suffering from spinal cord injury; assay: Administration of sildenafil citrate (50 mg VIAGRA tablet) to three male patients with spinal cord injury; type: in vivo, human; settings: for Effect of alleviating pain or spasticity caused by spinal cord injury (in words): patients with spinal cord injury (Patients 1 to 3), comparison with customary analgesics
Method: Sildenafil citrate was administered to three male patients of ages 30-73, who have sexual dysfunction and somatic pain. Patient 1: 7th thoracic vertebrae injury and complete paraplegia. […] Erectile dysfunction. Every day behavior: Wheel chair. Patient 2: 12th thoracic vertebrae injury and complete paraplegia. […] Erectile dysfunction. Every day behavior: Wheel chair. Patient 3: 6th cervical vertebrae injury and incomplete quadriplegia. They were constantly suffering from limb pain and spasticity. Erectile dysfunction. Every day behavior: Wheel chair. Patients 1 to 3 were dosed with a 50 mg tablet of […]® in the unit dosage form when feeling pain or spasticity.

peripheral nociception = settings: potentiated by sodium nitroprasside and L-arginine; cited from earlier work
nociception = settings: alone and with diclofenac; cited from earlier work
[2] = tested on: morphine-induced antinociception; settings: with morphine; cited from earlier work
[3] = Patient 1, Th7 complete paraplegia, 50 mg tablet
[4] = Patient 1, Th7 complete paraplegia, 50 mg tablet, monocitrate
[5] = Patient 2, Th12 complete paraplegia, 50 mg tablet, monocitrate
[6] = Patient 3, C6 incomplete quadriplegia, 50 mg tablet, monocitrate

## CC(C(=O)O)c1ccc(CC2CCCC2=O)cc1 (stereo not shown) [loxoprofen sodium]
[1]
  Effect of alleviating pain or spasticity caused by spinal cord injury (in words): no effects of alleviating pain or spasticity could be found
[1]; listed as Loxonin
  Effect of alleviating pain or spasticity caused by spinal cord injury (in words): does not have any analgesic effects

## CCCc1nn(C)c2c(=O)[nH]c(-c3cc(S(=O)(=O)N4CCN(C)CC4)ccc3OCC)nc12.O=C(O)CC(O)(CC(=O)O)C(=O)O [sildenafil citrate, 1-[[3-(6,7-dihydro-1-methyl-7-oxo-3-propyl-1H-pyrazolo[4,3-d]pyrimidin-5-yl)-4-ethoxyphenyl]sulfonyl]-4-methylpiperazine monocitrate]
[1]; [3]
  Emerging Time of Effect After Administration: 30 min
  Time until side effect (light heat sensation) disappeared: two to three
[1]; [4]
  Duration of Effects: around half; also recorded: half day
  Improvement of Erectile Dysfunction: improved and Yes
  Side Effects: Light heat sensation
[1]; Patient 2, Th12 complete paraplegia, 50 mg tablet
  Effects of alleviating pain or spasticity: by about 30%
[1]; [5]
  Duration of Effects: around one; also recorded: about one day
  Emerging Time of Effect After Administration: around one; also recorded: one hour
  Improvement of Erectile Dysfunction: not improved and No
  Side Effects: No side effect was observed and No
[1]; [6]
  Duration of Effects: 5 to 6 h
  Improvement of Erectile Dysfunction: improved and No
  Side Effects: No side effect was observed and No
[1]
  Effect of alleviating pain or spasticity caused by spinal cord injury (in words): significantly alleviates the pain or spasticity
[1]; summary over Patients 1 to 3, 50 mg
  Alleviation of the pain or spasticity: 20 to 50%

## O=C(O)Cc1ccccc1Nc1c(Cl)cccc1Cl [diclofevac sodium]
[1]
  Effect of alleviating pain or spasticity caused by spinal cord injury (in words): no effects of alleviating pain or spasticity could be found
[1]; listed as Voltaren
  Effect of alleviating pain or spasticity caused by spinal cord injury (in words): does not have any analgesic effects

## CCCc1nn(C)c2c(=O)[nH]c(-c3cc(S(=O)(=O)N4CCN(C)CC4)ccc3OCC)nc12 [sildenafil, 5-[2-ethoxy-5-(4-methyl-1-piperazinylsulphonyl)phenyl]-1-methyl-3-n-propyl-1,6-dihydro-7H-pyrazolo[4,3-d]pyrimidin-7-one]
Peripheral nociception
  Antinociception: induces antinociception
nociception
  Antinociceptive activity: produces antinociceptive activity, and increases that of diclofenac
[2]
  Effect on morphine-induced antinociception: significantly increases the morphine-induced antinociception
